Source: US8945540B2, “Compositions for enhancing the antibacterial activity of myeloperoxidase and methods of use thereof” (Exoxemis, Inc., priority 2008, dated 2015)

tested on: Staphylococcus aureus; assay: Microbicidal activity of the myeloperoxidase system (p-MPO, glucose oxidase, glucose) with amino acids in the presence of blood, CFU plate counts; synergy determination from these CFU; assay type: cell-based; conditions: MPO 25 μg/mL; AA 5 mM; 30 min
Outline: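 Staphylococcus aureus grown 24 hours in TSB at 35° C was washed in saline and added at a final 2-3×10^7 CFU per mL. The bacteria were mixed in 1 mL reactions with porcine myeloperoxidase, glucose oxidase, amino acids, 150 mM sodium chloride and 3% venous whole blood. Adding glucose to 150 mM started killing. After catalase addition, survivors were counted by serial dilution plating on TSA at 37° C for 24 hours.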

Row | SMILES | Log 10 (CFU + 1) Survivors
1 | NC(=O)CC[C@H](N)C(=O)O [L-Glutamine] | 7.3
2 | O=C(O)[C@@H]1CCCN1 [L-Proline] | 7.1
3 | C[C@@H](N)C(=O)O [D-Alanine] | 7.3
4 | N[C@H](Cc1c[nH]cn1)C(=O)O [D-Histidine] | 7.0
5 | N[C@@H](Cc1ccccc1)C(=O)O [L-Phenylalanine] | 7.1
6 | N[C@H](Cc1ccc(O)cc1)C(=O)O [D-Tyrosine] | 6.8
7 | NCCS(=O)(=O)O [Taurine] | 7.3
8 | N[C@@H](Cc1c[nH]cn1)C(=O)O [L-Histidine] | 7.3

same assay, conditions: MPO 25 μg/mL; AA 5 mM; 60 min

Row | SMILES | Log 10 (CFU + 1) Survivors
9 | NC(=O)CC[C@H](N)C(=O)O [L-Glutamine] | 7.1
10 | O=C(O)[C@@H]1CCCN1 [L-Proline] | 3.9
11 | C[C@@H](N)C(=O)O [D-Alanine] | 3.7
12 | N[C@H](Cc1c[nH]cn1)C(=O)O [D-Histidine] | 6.0
13 | N[C@@H](Cc1ccccc1)C(=O)O [L-Phenylalanine] | 0.0
14 | N[C@H](Cc1ccc(O)cc1)C(=O)O [D-Tyrosine] | 5.9
15 | NCCS(=O)(=O)O [Taurine] | 7.0
16 | N[C@@H](Cc1c[nH]cn1)C(=O)O [L-Histidine] | 7.3

same assay, conditions: MPO 25 μg/mL; AA […]; 30 min

Row | SMILES | Log 10 (CFU + 1) Survivors
17 | NC(=O)CC[C@H](N)C(=O)O [L-Glutamine] | 6.8
18 | O=C(O)[C@@H]1CCCN1 [L-Proline] | 7.0
19 | C[C@@H](N)C(=O)O [D-Alanine] | 7.3
20 | N[C@H](Cc1c[nH]cn1)C(=O)O [D-Histidine] | 6.9
21 | N[C@@H](Cc1ccccc1)C(=O)O [L-Phenylalanine] | 7.0
22 | N[C@H](Cc1ccc(O)cc1)C(=O)O [D-Tyrosine] | 6.7
23 | NCCS(=O)(=O)O [Taurine] | 7.3
24 | N[C@@H](Cc1c[nH]cn1)C(=O)O [L-Histidine] | 7.3

same assay, conditions: MPO 25 μg/mL; AA […]; 60 min

Row | SMILES | Log 10 (CFU + 1) Survivors
25 | NC(=O)CC[C@H](N)C(=O)O [L-Glutamine] | 7.0
26 | O=C(O)[C@@H]1CCCN1 [L-Proline] | 6.8
27 | C[C@@H](N)C(=O)O [D-Alanine] | 6.7
28 | N[C@H](Cc1c[nH]cn1)C(=O)O [D-Histidine] | 5.8
29 | N[C@@H](Cc1ccccc1)C(=O)O [L-Phenylalanine] | 4.9
30 | N[C@H](Cc1ccc(O)cc1)C(=O)O [D-Tyrosine] | 7.0
31 | NCCS(=O)(=O)O [Taurine] | 7.1
32 | N[C@@H](Cc1c[nH]cn1)C(=O)O [L-Histidine] | 7.3

same assay, conditions: MPO 100 μg/mL; AA 5 mM; 30 min

Row | SMILES | Log 10 (CFU + 1) Survivors
33 | NC(=O)CC[C@H](N)C(=O)O [L-Glutamine] | 7.2
34 | O=C(O)[C@@H]1CCCN1 [L-Proline] | 4.9
35 | C[C@@H](N)C(=O)O [D-Alanine] | 6.8
36 | N[C@H](Cc1c[nH]cn1)C(=O)O [D-Histidine] | 5.1
37 | N[C@@H](Cc1ccccc1)C(=O)O [L-Phenylalanine] | 0.0
38 | N[C@H](Cc1ccc(O)cc1)C(=O)O [D-Tyrosine] | 6.7
39 | NCCS(=O)(=O)O [Taurine] | 7.3
40 | N[C@@H](Cc1c[nH]cn1)C(=O)O [L-Histidine] | 6.8

same assay, conditions: MPO 100 μg/mL; AA 5 mM; 60 min

Row | SMILES | Log 10 (CFU + 1) Survivors
41 | NC(=O)CC[C@H](N)C(=O)O [L-Glutamine] | 0.0
42 | O=C(O)[C@@H]1CCCN1 [L-Proline] | 0.0
43 | C[C@@H](N)C(=O)O [D-Alanine] | 0.6
44 | N[C@H](Cc1c[nH]cn1)C(=O)O [D-Histidine] | 4.1
45 | N[C@@H](Cc1ccccc1)C(=O)O [L-Phenylalanine] | 0.0
46 | N[C@H](Cc1ccc(O)cc1)C(=O)O [D-Tyrosine] | 5.0
47 | NCCS(=O)(=O)O [Taurine] | 5.0
48 | N[C@@H](Cc1c[nH]cn1)C(=O)O [L-Histidine] | 4.7

same assay, conditions: MPO 100 μg/mL; AA 20 mM; 30 min

Row | SMILES | Log 10 (CFU + 1) Survivors
49 | NC(=O)CC[C@H](N)C(=O)O [L-Glutamine] | 7.0
50 | O=C(O)[C@@H]1CCCN1 [L-Proline] | 5.8
51 | C[C@@H](N)C(=O)O [D-Alanine] | 7.3
52 | N[C@H](Cc1c[nH]cn1)C(=O)O [D-Histidine] | 6.8
53 | N[C@@H](Cc1ccccc1)C(=O)O [L-Phenylalanine] | 0.0
54 | N[C@H](Cc1ccc(O)cc1)C(=O)O [D-Tyrosine] | 5.8
55 | NCCS(=O)(=O)O [Taurine] | 7.3
56 | N[C@@H](Cc1c[nH]cn1)C(=O)O [L-Histidine] | 7.3

same assay, conditions: MPO 100 μg/mL; AA 20 mM; 60 min

Row | SMILES | Log 10 (CFU + 1) Survivors
57 | NC(=O)CC[C@H](N)C(=O)O [L-Glutamine] | 5.2
58 | O=C(O)[C@@H]1CCCN1 [L-Proline] | 0.0
59 | C[C@@H](N)C(=O)O [D-Alanine] | 0.0
60 | N[C@H](Cc1c[nH]cn1)C(=O)O [D-Histidine] | 3.9
61 | N[C@@H](Cc1ccccc1)C(=O)O [L-Phenylalanine] | 0.0
62 | N[C@H](Cc1ccc(O)cc1)C(=O)O [D-Tyrosine] | 0.0
63 | NCCS(=O)(=O)O [Taurine] | 5.1
64 | N[C@@H](Cc1c[nH]cn1)C(=O)O [L-Histidine] | 7.3

same assay, conditions: Table 2; amino acid 5 mM (none: 0 mM); MPO 38 U/ml; GO 33.3 U/ml; blood

Row | SMILES | Average Viability CFU/ml 60 min | Log 10 (CFU + 1) Survivors 60 min | Log Reduction 60 min
65 | NC(=O)CC[C@H](N)C(=O)O [L-Glutamine] | 286 CFU/ml | 2.5 | 4.9
66 | O=C(O)[C@@H]1CCCN1 [L-Proline] | 4850 CFU/ml | 3.7 | 3.7
67 | N[C@@H](Cc1ccccc1)C(=O)O [L-Phenylalanine] | 0 CFU/ml | 0.0 | 7.4
68 | N[C@@H](Cc1c[nH]cn1)C(=O)O [L-Histidine] | 48000 CFU/ml | 4.7 | 2.7

same assay, conditions: Table 3; amino acid 5 mM (none: 0 mM); MPO 38 U/ml; GO 33.3 U/ml; blood

Row | SMILES | Average Viability CFU/ml 60 min | Log 10 (CFU + 1) Survivors 60 min | Log Reduction 60 min
69 | C[C@@H](N)C(=O)O [D-Alanine] | 0 CFU/ml | 0.0 | 7.3
70 | NCCS(=O)(=O)O [Taurine] | 830000 CFU/ml | 5.9 | 1.4

same assay, conditions: Table 5; amino acid 5 mM (none: 0 mM); MPO 38 U/ml; GO 33.3 U/ml; blood

Row | SMILES | Average Viability CFU/ml 60 min | Log Reduction 60 min
71 | N[C@H](Cc1c[nH]cn1)C(=O)O [D-Histidine] | 10900 CFU/ml | 3.4
72 | N[C@H](Cc1ccc(O)cc1)C(=O)O [D-Tyrosine] | 9400 CFU/ml | 3.4

same assay, conditions: Table 10; single amino acid 2.5 mM; MPO 4.7 U/ml, GO 4.2 U/ml; in the presence of blood; 50 min

Row | SMILES | Average Viability CFU/ml 50 min | Log Reduction 50 min
73 | NC(=O)CC[C@H](N)C(=O)O [L-Glutamine] | 14350000 CFU/ml | 0.2
74 | O=C(O)[C@@H]1CCCN1 [L-Proline] | 1235000 CFU/ml | 1.3
75 | N[C@@H](Cc1ccccc1)C(=O)O [L-Phenylalanine] | 10550000 CFU/ml | 0.4
76 | N[C@H](Cc1ccc(O)cc1)C(=O)O [D-Tyrosine] | 1320000 CFU/ml | 1.3
77 | N[C@@H](Cc1c[nH]cn1)C(=O)O [L-Histidine] | 7000000 CFU/ml | 0.5

same assay, conditions: Table 11; single amino acid 2.5 mM; MPO 4.7 U/ml, GO 4.2 U/ml; in the presence of blood; 50 min

Row | SMILES | Average Viability CFU/ml 50 min | Log Reduction 50 min
78 | N[C@H](Cc1c[nH]cn1)C(=O)O [D-Histidine] | 8000000 CFU/ml | 0.5
79 | N[C@@H](Cc1ccccc1)C(=O)O [L-Phenylalanine] | 11100000 CFU/ml | 0.4
80 | N[C@@H](Cc1c[nH]cn1)C(=O)O [L-Histidine] | 7000000 CFU/ml | 0.6

same assay, conditions: Table 13; single amino acid 2.5 mM; MPO 4.7 U/ml, GO 4.2 U/ml; in the presence of blood; 50 min

Row | SMILES | Average Viability CFU/ml 50 min | Log Reduction 50 min
81 | NC(=O)CC[C@H](N)C(=O)O [L-Glutamine] | 12550000 CFU/ml | 0.3
82 | O=C(O)[C@@H]1CCCN1 [L-Proline] | 1500000 CFU/ml | 1.2
83 | C[C@@H](N)C(=O)O [D-Alanine] | 1900000 CFU/ml | 1.1
84 | N[C@@H](Cc1c[nH]cn1)C(=O)O [L-Histidine] | 4750000 CFU/ml | 0.7

same assay, conditions: Table 14; single amino acid 2.5 mM; MPO 4.7 U/ml, GO 4.2 U/ml; in the presence of blood; 50 min

Row | SMILES | Average Viability CFU/ml 50 min | Log Reduction 50 min
85 | O=C(O)[C@@H]1CCCN1 [L-Proline] | 1835000 CFU/ml | 1.2
86 | N[C@@H](Cc1ccccc1)C(=O)O [L-Phenylalanine] | 12050000 CFU/ml | 0.3

same assay, conditions: Table 19; amino acid 3.5 mM; MPO 4.7 U/ml, GO 4.2 U/ml; 50 min

Row | SMILES | Average Viability CFU/ml 50 min | Log Reduction 50 min
87 | N[C@@H](Cc1ccccc1)C(=O)O [L-Phenylalanine] | 11200000 CFU/ml | 0.4

tested on: Staphylococcus aureus; assay: Control: microbicidal activity of the amino acid or analogue alone (no glucose, MPO, glucose oxidase) in the presence of blood; assay type: cell-based; conditions: Staphylococcus aureus, 1 h; amino acid alone 5 mM; MPO 0; GO 0; no glucose; blood; without replication; read-out: Log Reduction 60 min
Description: As a control to determine the microbicidal activity of the amino acids alone, the foregoing procedure was followed without replication, except in the absence of glucose, MPO, and glucose oxidase.

Row | SMILES | log reduction at 5000 µM
88 | NC(=O)CC[C@H](N)C(=O)O [L-Glutamine] | 0
89 | O=C(O)[C@@H]1CCCN1 [L-Proline] | 0
90 | C[C@@H](N)C(=O)O [D-Alanine] | 0
91 | N[C@H](Cc1c[nH]cn1)C(=O)O [D-Histidine] | 0
92 | N[C@@H](Cc1ccccc1)C(=O)O [L-Phenylalanine] | 0
93 | N[C@H](Cc1ccc(O)cc1)C(=O)O [D-Tyrosine] | 0
94 | NCCS(=O)(=O)O [Taurine] | 0
95 | N[C@@H](Cc1c[nH]cn1)C(=O)O [L-Histidine] | 0

same assay, conditions: amino acid alone 5 mM; MPO 0; GO 0; no glucose; blood; without replication

Row | SMILES | Average Viability CFU/ml 60 min
96 | NC(=O)CC[C@H](N)C(=O)O [L-Glutamine] | 24100000 CFU/ml
97 | O=C(O)[C@@H]1CCCN1 [L-Proline] | 21600000 CFU/ml
98 | C[C@@H](N)C(=O)O [D-Alanine] | 19600000 CFU/ml
99 | N[C@H](Cc1c[nH]cn1)C(=O)O [D-Histidine] | 22300000 CFU/ml
100 | N[C@@H](Cc1ccccc1)C(=O)O [L-Phenylalanine] | 22400000 CFU/ml
101 | N[C@H](Cc1ccc(O)cc1)C(=O)O [D-Tyrosine] | 23200000 CFU/ml
102 | NCCS(=O)(=O)O [Taurine] | 21600000 CFU/ml
103 | N[C@@H](Cc1c[nH]cn1)C(=O)O [L-Histidine] | 22700000 CFU/ml
